Data taken from US9732119B2, “Immunomodulators” (BRISTOL-MYERS SQUIBB COMPANY, priority 2014, dated 2017).
Positions of bridges follow the written chain, without caps; N, C: chain ends. Non-standard residues stand in square brackets, D forms with d. Residues, ends and D or L forms follow the SMILES beside them. Trp(1-CH2COOH) = N[C@@H](Cc1cn(CC(=O)O)c2ccccc12)C(=O)O; Hyp = O=C(O)[C@@H]1C[C@@H](O)CN1; Aad = N[C@@H](CCCC(=O)O)C(=O)O; NMeNle = CCCC[C@H](NC)C(=O)O; Pip = O=C(O)[C@@H]1CCCCN1; NMeA = CN[C@@H](C)C(=O)O; Orn = NCCC[C@H](N)C(=O)O; Dab = NCC[C@H](N)C(=O)O; Dap = NC[C@H](N)C(=O)O; AEA = NCCOCC(=O)O; Ava = NCCCCC(=O)O

Target: T1, PD-1-Ig binding to PD-L1-TVMV-His (PD-L1-His) (Homo sapiens, UniProt Q9NZQ7)
T1 construct: hPDL1(19-239)-TVMV-His; made in house; host or cells: HEK293T cells
Test: PD-1/PD-L1 Homogenous Time-Resolved Fluorescence (HTRF) binding assay
Conditions: PD-1-Ig (20 nM) / PD-L1-His (10 nM); numeric values
Method in brief: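 In dPBS with 0.1% BSA and 0.05% Tween-20, inhibitors were preincubated 15 min with 10 nM PD-L1-His before 20 nM PD-1-Ig was added for another 15 min. Binding read by time-resolved FRET between Eu-cryptate anti-Ig (1 nM) and APC anti-His (20 nM).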

T1 sequence (Q9NZQ7 with tags, fused parts or gaps): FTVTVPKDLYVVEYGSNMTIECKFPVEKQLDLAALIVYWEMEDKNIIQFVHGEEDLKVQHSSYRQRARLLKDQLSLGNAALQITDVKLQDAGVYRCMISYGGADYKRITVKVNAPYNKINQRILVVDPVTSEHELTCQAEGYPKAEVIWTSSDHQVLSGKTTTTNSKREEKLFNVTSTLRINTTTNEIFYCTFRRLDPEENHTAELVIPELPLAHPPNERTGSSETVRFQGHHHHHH

| IC50 [nM] | SMILES |
| --- | --- |
| 765 | CCCC[C@H]1C(=O)N(C)[C@@H](CCCC)C(=O)N[C@@H](CC(C)C)C(=O)NCCCCC(=O)N[C@@H](Cc2ccc(O)cc2)C(=O)N(C)[C@@H](C)C(=O)N[C@@H](CC(=O)O)C(=O)N2CCC[C@H]2C(=O)N[C@@H](Cc2c[nH]cn2)C(=O)N[C@@H](CCCCN)C(=O)N2C[C@H](O)C[C@H]2C(=O)N[C@@H](Cc2c[nH]c3ccccc23)C(=O)N[C@@H](CCCCN)C(=O)N[C@@H](Cc2cn(CC(=O)O)c3ccccc23)C(=O)N1C [Example 10509] (cyclo([Ava]Y[NMeA]DPHK[Hyp]WK[Trp(1-CH2COOH)][NMeNle][NMeNle]L)) |

Same assay, conditions: PD-1-Ig (20 nM) / PD-L1-His (10 nM); range classes

| SMILES | IC50 [nM] |
| --- | --- |
| CCCC[C@H]1C(=O)N(C)[C@@H](CCCC)C(=O)N[C@@H](CC(C)C)C(=O)NCCOCC(=O)N[C@@H](Cc2ccccc2)C(=O)N(C)[C@@H](C)C(=O)N[C@@H](CC(C)C)C(=O)N2CCC[C@H]2C(=O)NCC(=O)N[C@@H](CC(C)C)C(=O)N2CCC[C@H]2C(=O)N[C@@H](Cc2ccccc2)C(=O)NCC(=O)N[C@@H](Cc2ccccc2)C(=O)N1C [Example 10500] (cyclo([AEA]F[NMeA]LPGLPFGF[NMeNle][NMeNle]L)) | 100 to 10000 |
| CCCC[C@H]1C(=O)N(C)[C@@H](CCCC)C(=O)N[C@@H](CC(C)C)C(=O)N[C@H](C(=O)NCC(N)=O)CCCC(=O)N[C@@H](Cc2ccc(O)cc2)C(=O)N2CCCC[C@H]2C(=O)N[C@@H](CC(N)=O)C(=O)N2CCC[C@H]2C(=O)N[C@@H](CN)C(=O)N[C@@H](CCC(=O)O)C(=O)N2C[C@H](O)C[C@H]2C(=O)N[C@@H](Cc2c[nH]c3ccccc23)C(=O)N[C@@H](CCN)C(=O)N[C@@H](Cc2cn(CC(=O)O)c3ccccc23)C(=O)N1C [Example 10508] (Y[Pip]NP[Dap]E[Hyp]W[Dab][Trp(1-CH2COOH)][NMeNle][NMeNle]L[Aad]G-NH2; lactam N-14) | 10 to 99 |
| CCCC[C@H]1C(=O)N(C)[C@@H](CCCC)C(=O)N[C@@H](CC(C)C)C(=O)NCCCCC(=O)N[C@@H](Cc2ccc(O)cc2)C(=O)N2CCCC[C@H]2C(=O)N[C@@H](CC(=O)O)C(=O)N2CCC[C@H]2C(=O)N[C@@H](Cc2c[nH]cn2)C(=O)N[C@@H](CCCCN)C(=O)N2C[C@H](O)C[C@H]2C(=O)N[C@@H](Cc2c[nH]c3ccccc23)C(=O)N[C@@H](CCCCN)C(=O)N[C@@H](Cc2cn(CC(=O)O)c3ccccc23)C(=O)N1C [Example 10510] (cyclo([Ava]Y[Pip]DPHK[Hyp]WK[Trp(1-CH2COOH)][NMeNle][NMeNle]L)) | 100 to 10000 |
| CCCC[C@H]1C(=O)N(C)[C@@H](CCCC)C(=O)N[C@@H](CC(C)C)C(=O)NCCC[C@H](N)C(=O)N[C@@H](Cc2ccc(O)cc2)C(=O)N2CCCC[C@H]2C(=O)N[C@@H](CC(N)=O)C(=O)N2CCC[C@H]2C(=O)N[C@@H](CN)C(=O)N[C@@H](CC(C)C)C(=O)N2CCC[C@H]2C(=O)N[C@@H](Cc2c[nH]c3ccccc23)C(=O)N[C@@H](CCN)C(=O)N[C@@H](Cc2cn(CC(=O)O)c3ccccc23)C(=O)N1C [Example 10511] (H-[Orn]Y[Pip]NP[Dap]LPW[Dab][Trp(1-CH2COOH)][NMeNle][NMeNle]L; lactam 1-C) | 100 to 10000 |
| CCCC[C@H]1C(=O)N(C)[C@@H](CCCC)C(=O)N[C@@H](CC(C)C)C(=O)NCCCCC(=O)N[C@@H](Cc2ccc(O)cc2)C(=O)N2CCCC[C@H]2C(=O)N[C@@H](CC(N)=O)C(=O)N2CCC[C@H]2C(=O)N[C@@H](CN)C(=O)N[C@@H](CC(C)C)C(=O)N2C[C@H](O)C[C@H]2C(=O)N[C@@H](Cc2c[nH]c3ccccc23)C(=O)N[C@@H](CCN)C(=O)N[C@@H](Cc2cn(CC(=O)O)c3ccccc23)C(=O)N1C [Example 10512] (cyclo([Ava]Y[Pip]NP[Dap]L[Hyp]W[Dab][Trp(1-CH2COOH)][NMeNle][NMeNle]L)) | 100 to 10000 |

Continued, values first:

| IC50 [nM] | SMILES |
| --- | --- |
| 1 to 9.9 | CCCC[C@H]1C(=O)N(C)[C@@H](CCCC)C(=O)N[C@@H](CC(C)C)C(=O)NCCOCC(=O)N[C@@H](Cc2ccc(O)cc2)C(=O)N(C)[C@@H](C)C(=O)N[C@@H](CC(N)=O)C(=O)N2CCC[C@H]2C(=O)N[C@@H](CN)C(=O)N[C@@H](CC(C)C)C(=O)N2C[C@H](O)C[C@H]2C(=O)N[C@@H](Cc2c[nH]c3ccccc23)C(=O)N[C@@H](CCN)C(=O)N[C@@H](Cc2c[nH]c3ccccc23)C(=O)N1C [Example 10501] (cyclo([AEA]Y[NMeA]NP[Dap]L[Hyp]W[Dab]W[NMeNle][NMeNle]L)) |
| 1 to 9.9 | CCCC[C@H]1C(=O)N(C)[C@@H](CCCC)C(=O)N[C@@H](CC(C)C)C(=O)NCCOCC(=O)N[C@@H](Cc2ccc(O)cc2)C(=O)N(C)[C@@H](C)C(=O)N[C@@H](CC(N)=O)C(=O)N2CCC[C@H]2C(=O)N[C@@H](CN)C(=O)N[C@@H](CC(C)C)C(=O)N2C[C@H](O)C[C@H]2C(=O)N[C@@H](Cc2c[nH]c3ccccc23)C(=O)N[C@@H](CCN)C(=O)N[C@@H](Cc2cn(CC(=O)O)c3ccccc23)C(=O)N1C [Example 10502] (cyclo([AEA]Y[NMeA]NP[Dap]L[Hyp]W[Dab][Trp(1-CH2COOH)][NMeNle][NMeNle]L)) |
| 10 to 99 | CCCC[C@H]1C(=O)N(C)[C@@H](CCCC)C(=O)N[C@@H](CC(C)C)C(=O)NCCOCC(=O)N[C@@H](Cc2ccc(O)cc2)C(=O)N(C)[C@@H](C)C(=O)N[C@@H](CC(N)=O)C(=O)N2CCC[C@H]2C(=O)N[C@@H](CN)C(=O)N[C@@H](CC(C)C)C(=O)N2C[C@H](O)C[C@H]2C(=O)N[C@@H](Cc2c[nH]c3ccccc23)C(=O)N[C@@H](CO)C(=O)N[C@@H](Cc2cn(CC(=O)O)c3ccccc23)C(=O)N1C [Example 10503] (cyclo([AEA]Y[NMeA]NP[Dap]L[Hyp]WS[Trp(1-CH2COOH)][NMeNle][NMeNle]L)) |
| 1 to 9.9 | CCCC[C@H]1C(=O)N(C)[C@@H](CCCC)C(=O)N[C@@H](CC(C)C)C(=O)NCCCCC(=O)N[C@@H](Cc2ccc(O)cc2)C(=O)N(C)[C@@H](C)C(=O)N[C@@H](CC(N)=O)C(=O)N2CCC[C@H]2C(=O)N[C@@H](CN)C(=O)N[C@@H](CC(C)C)C(=O)N2C[C@H](O)C[C@H]2C(=O)N[C@@H](Cc2c[nH]c3ccccc23)C(=O)N[C@@H](CCN)C(=O)N[C@@H](Cc2c[nH]c3ccccc23)C(=O)N1C [Example 10505] (cyclo([Ava]Y[NMeA]NP[Dap]L[Hyp]W[Dab]W[NMeNle][NMeNle]L)) |
| 1 to 9.9 | CCCC[C@H]1C(=O)N(C)[C@@H](CCCC)C(=O)N[C@@H](CC(C)C)C(=O)NCCCCC(=O)N[C@@H](Cc2ccc(O)cc2)C(=O)N(C)[C@@H](C)C(=O)N[C@@H](CC(N)=O)C(=O)N2CCC[C@H]2C(=O)N[C@@H](CN)C(=O)N[C@@H](CCC(=O)O)C(=O)N2C[C@H](O)C[C@H]2C(=O)N[C@@H](Cc2c[nH]c3ccccc23)C(=O)N[C@@H](CCN)C(=O)N[C@@H](Cc2cn(CC(=O)O)c3ccccc23)C(=O)N1C [Example 10506] (cyclo([Ava]Y[NMeA]NP[Dap]E[Hyp]W[Dab][Trp(1-CH2COOH)][NMeNle][NMeNle]L)) |
| 1 to 9.9 | CCCC[C@H]1C(=O)N(C)[C@@H](CCCC)C(=O)N[C@@H](CC(C)C)C(=O)N[C@H](C(=O)NCC(N)=O)CCCC(=O)N[C@@H](Cc2ccc(O)cc2)C(=O)N(C)[C@@H](C)C(=O)N[C@@H](CC(N)=O)C(=O)N2CCC[C@H]2C(=O)N[C@@H](CN)C(=O)N[C@@H](CCC(=O)O)C(=O)N2C[C@H](O)C[C@H]2C(=O)N[C@@H](Cc2c[nH]c3ccccc23)C(=O)N[C@@H](CCN)C(=O)N[C@@H](Cc2cn(CC(=O)O)c3ccccc23)C(=O)N1C [Example 10507] (Y[NMeA]NP[Dap]E[Hyp]W[Dab][Trp(1-CH2COOH)][NMeNle][NMeNle]L[Aad]G-NH2; lactam N-14) |
